The conditions of series [1]: snar bond, DMSO.
In series [2] the target is CFTR-mediated chloride transport (Homo sapiens, UniProt P13569). In kind it is cell-based. To be noted: enteroid cells incubated with test compound 18-24 hours, acute 10 μM forskolin and 300 nM Compound III; for Max. Activity: % of chloride transport with 3 μM Compound A, 3 μM Compound II and 300 nM acute Compound III triple combination control. The method in brief: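 Membrane-potential fluorescence AUC over 15 min quantified CFTR chloride transport after acute forskolin (10 μM), IBMX (100 μM) and Compound III (300 nM) in chloride-free buffer. Human enteroid cells were pretreated with compound for 18–24 h; % Activity is relative to 3 μM Compound A + 3 μM Compound II + 300 nM Compound III.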
Chain of CFTR-mediated chloride transport (P13569 whole entry, looked up): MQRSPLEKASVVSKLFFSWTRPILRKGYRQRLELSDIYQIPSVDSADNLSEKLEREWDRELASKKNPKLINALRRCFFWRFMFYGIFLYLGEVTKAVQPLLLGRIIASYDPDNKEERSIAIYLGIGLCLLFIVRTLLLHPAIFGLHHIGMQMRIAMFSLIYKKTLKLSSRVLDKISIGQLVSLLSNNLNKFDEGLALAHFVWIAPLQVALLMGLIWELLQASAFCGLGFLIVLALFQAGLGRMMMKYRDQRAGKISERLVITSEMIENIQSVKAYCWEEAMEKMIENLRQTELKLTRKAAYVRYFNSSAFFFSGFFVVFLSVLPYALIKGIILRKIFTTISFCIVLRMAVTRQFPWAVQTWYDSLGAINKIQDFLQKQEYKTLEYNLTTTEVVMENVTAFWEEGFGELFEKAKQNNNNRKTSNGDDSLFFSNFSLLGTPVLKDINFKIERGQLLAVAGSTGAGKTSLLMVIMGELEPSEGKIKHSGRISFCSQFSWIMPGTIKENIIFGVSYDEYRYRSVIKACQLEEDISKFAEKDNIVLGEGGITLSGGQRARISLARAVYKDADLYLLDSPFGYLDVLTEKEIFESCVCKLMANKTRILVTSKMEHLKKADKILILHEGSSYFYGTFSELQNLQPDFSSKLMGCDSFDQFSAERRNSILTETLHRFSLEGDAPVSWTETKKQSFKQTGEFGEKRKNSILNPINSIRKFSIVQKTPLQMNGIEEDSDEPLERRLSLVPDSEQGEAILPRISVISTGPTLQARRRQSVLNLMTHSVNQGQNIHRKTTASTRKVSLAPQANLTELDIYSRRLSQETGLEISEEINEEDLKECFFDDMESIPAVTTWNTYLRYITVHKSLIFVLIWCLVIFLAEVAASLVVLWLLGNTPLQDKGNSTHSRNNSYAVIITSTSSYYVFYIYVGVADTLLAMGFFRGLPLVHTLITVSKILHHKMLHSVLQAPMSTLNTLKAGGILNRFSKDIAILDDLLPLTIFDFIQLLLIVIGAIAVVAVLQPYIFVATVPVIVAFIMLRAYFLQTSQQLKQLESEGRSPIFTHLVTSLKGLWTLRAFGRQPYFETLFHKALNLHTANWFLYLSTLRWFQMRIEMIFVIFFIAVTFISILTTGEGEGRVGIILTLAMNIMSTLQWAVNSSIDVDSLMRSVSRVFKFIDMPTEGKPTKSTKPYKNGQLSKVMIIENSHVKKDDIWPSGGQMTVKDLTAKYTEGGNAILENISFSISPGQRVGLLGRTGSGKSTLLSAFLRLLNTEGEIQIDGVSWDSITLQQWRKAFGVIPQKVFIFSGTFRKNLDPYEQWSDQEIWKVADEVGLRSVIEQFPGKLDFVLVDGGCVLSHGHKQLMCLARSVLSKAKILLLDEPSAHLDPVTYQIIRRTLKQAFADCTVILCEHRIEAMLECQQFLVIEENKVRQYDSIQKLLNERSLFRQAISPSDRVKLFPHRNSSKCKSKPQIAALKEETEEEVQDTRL

pEC50: −log10 of the molar value. Where two headings read alike, the source gives them in different places.

For orientation: pEC50 means −log10 of the EC50, conventionally taken in molar units.

Regarding `CC1(C)CC2CCCCNc3cccc(n3)S(=O)(=O)NC(=O)c3ccc(-n4cc(OCCC5(C(F)(F)F)CC5)cn4)nc3N1C2` (racemic) [Compound 70, 12,12-Dimethyl-8-(4-{2-[1-(trifluoromethyl)cyclopropyl]ethoxy}-1H-pyrazol-1-yl)-2λ^6-thia-3,9,11,19,24-pentaazatetracyclo[18.3.1.111,14.05,10]pentacosa-1(23),5,7,9,20(24),21-hexaene-2,2,4-trione], the ring closure, yield after HPLC in series [1] (from CC1(C)CC(CCCCNc2cccc(S(=O)(=O)NC(=O)c3ccc(-n4cc(OCCC5(C(F)(F)F)CC5)cn4)nc3Cl)n2)CN1, 16-membered ring, K2CO3/CsF/3A MS, 164.4 mM, 150.0 °C) turned out to be 24%. For the same compound, in series [2], the pEC50 was > 6.00 and the “Max. Activity” value was “++ (++ is 30-60%)”.

In turn, `CC1(C)CC2CCCn3ccc(n3)S(=O)(=O)NC(=O)c3ccc(-n4ccc(OCCCC5(C(F)(F)F)CC5)n4)nc3N1C2` (racemic) [Compound 155, 20,20-Dimethyl-4-(3-{3-[1-(trifluoromethyl)cyclopropyl]propoxy}-1H-pyrazol-1-yl)-10λ^6-thia-1,3,9,14,22-pentaazatetracyclo[16.2.1.111,14.02,7]docosa-2(7),3,5,11(22),12-pentaene-8,10,10-trione] returned a ring closure, yield after HPLC in series [1] (from CC1(C)CC(CCCn2ccc(S(=O)(=O)NC(=O)c3ccc(-n4ccc(OCCCC5(C(F)(F)F)CC5)n4)nc3Cl)n2)CN1, 14-membered ring, K2CO3/CsF/3A MS, 49.7 mM, 140.0 °C, 16.0 h, 2 steps) of 51%. Further, in series [2], the pEC50 was > 6.00 and the “Max. Activity” value is recorded as “+++ (+++ is >60%)”.

Compound `CC1(C)CC2CN1c1nc(-n3ccc(OCCC(C4CC4)C4CC4)n3)ccc1C(=O)NS(=O)(=O)c1cccc(n1)NCCO2` (racemic) [Compound 156, 8-[3-(3,3-Dicyclopropylpropoxy)-1H-pyrazol-1-yl]-12,12-dimethyl-15-oxa-2λ^6-thia-3,9,11,18,23-pentaazatetracyclo[17.3.1.111,14.05,10]tetracosa-1(23),5,7,9,19,21-hexaene-2,2,4-trione] had a ring closure, yield after HPLC in series [1] (from CC1(C)CC(OCCNc2cccc(S(=O)(=O)NC(=O)c3ccc(-n4ccc(OCCC(C5CC5)C5CC5)n4)nc3Cl)n2)CN1, 15-membered ring, K2CO3/CsF/3A MS, 121.6 mM, 150.0 °C) of 30%. Also, in series [2], the pEC50 was > 6.00 and the “Max. Activity” value was “+++ (+++ is >60%)”.

For `CC1(C)CC2CN1c1nc(-n3ccc(OCCC4(C(F)(F)F)CC4)n3)ccc1C(=O)NS(=O)(=O)c1ccn(n1)CCO2` (racemic) [Compound 164, 20,20-Dimethyl-4-(3-{2-[1-(trifluoromethyl)cyclopropyl]ethoxy}-1H-pyrazol-1-yl)-17-oxa-10λ^6-thia-1,3,9,14,22-pentaazatetracyclo[16.2.1.111,14.02,7]docosa-2(7),3,5,11(22),12-pentaene-8,10,10-trione], the ring closure, yield after HPLC in series [1] (from CC(C)(C)OC(=O)N1CC(OCCn2ccc(S(=O)(=O)NC(=O)c3ccc(-n4ccc(OCCC5(C(F)(F)F)CC5)n4)nc3Cl)n2)CC1(C)C, 14-membered ring, K2CO3/CsF/3A MS, 62.6 mM, 140.0 °C, 2 steps) was determined as 30%. Further, in series [2], the pEC50 was 5.52 to 6.00 and the “Max. Activity” value is given as “++ (++ is 30-60%)”.

Turning to `CC1(C)CC2CN1c1nc(-n3ccc(OCCC4C5(CC5)C45CC5)n3)ccc1C(=O)NS(=O)(=O)c1cccc(n1)NCCO2` (racemic) [Compound 188, 8-[3-(2-{Dispiro[2.0.2.1]heptan-7-yl}ethoxy)-1H-pyrazol-1-yl]-12,12-dimethyl-15-oxa-2λ^6-thia-3,9,11,18,23-pentaazatetracyclo[17.3.1.111,14.05,10]tetracosa-1(23),5(10),6,8,19,21-hexaene-2,2,4-trione], the ring closure, yield after HPLC in series [1] (from CC1(C)CC(OCCNc2cccc(S(=O)(=O)NC(=O)c3ccc(-n4ccc(OCCC5C6(CC6)C56CC6)n4)nc3Cl)n2)CN1, 15-membered ring, K2CO3/CsF/3A MS, 108.4 mM, 140.0 °C, 20.0 h, 2 steps) turned out to be 97%. Also, in series [2], the pEC50 is > 6.00 and the “Max. Activity” value is on record as “+++ (+++ is >60%)”.

Consider `CC(C)(C)COc1ccn(-c2ccc3c(n2)N2CC(CCNc4cccc(n4)S(=O)(=O)NC3=O)CC2(C)C)n1` (stereo not drawn) [Compound 1, 11-[3-(2,2-dimethylpropoxy)-1H-pyrazol-1-yl]-7,7-dimethyl-17λ^6-thia-2,8,10,16,22-pentaazatetracyclo[16.3.1.15,8.09,14]tricosa-1(21),9(14),10,12,18(22),19-hexaene-15,17,17-trione], for which the ring closure, yield after HPLC in series [1] (from CC(C)(C)COc1ccn(-c2ccc(C(=O)NS(=O)(=O)c3cccc(NCCC4CNC(C)(C)C4)n3)c(Cl)n2)n1, 14-membered ring, K2CO3, 155.0 °C, 62.0 h, 2 steps) worked out at 10%. For the same compound, in series [2], the pEC50 is > 6.00 and the “Max. Activity” value is “+++ (+++ is >60%)”.

For the compound `CC1(C)CC2CCNc3cccc(n3)S(=O)(=O)NC(=O)c3ccc(-n4ccc(OCC5(C(F)(F)F)CC5)n4)nc3N1C2` (stereo not drawn) [Compound 4, 7,7-dimethyl-11-(3-{[1-(trifluoromethyl)cyclopropyl]methoxy}-1H-pyrazol-1-yl)-17λ^6-thia-2,8,10,16,22-pentaazatetracyclo[16.3.1.1(5,8).0(9,14)]tricosa-1(21),9(14),10,12,18(22),19-hexaene-15,17,17-trione], in series [1] (from CC1(C)CC(CCNc2cccc(S(=O)(=O)NC(=O)c3ccc(-n4ccc(OCC5(C(F)(F)F)CC5)n4)nc3Cl)n2)CN1, 14-membered ring, K2CO3, 210.5 mM, 125.0 °C, 112.0 h, 2 steps), the ring closure, yield after HPLC was 9%. In series [2], the negative logarithm of the EC50 (pEC50) is > 6.00 and the “Max. Activity” value is given as “+++ (+++ is >60%)”.

`Cc1c2cnn1CCCC1CN(c3nc(-n4ccc(OCCC5(C(F)(F)F)CC5)n4)ccc3C(=O)NS2(=O)=O)C(C)(C)C1` (stereo not drawn) [Compound 18, 20,20,22-trimethyl-4-(3-{2-[1-(trifluoromethyl)cyclopropyl]ethoxy}-1H-pyrazol-1-yl)-10λ^6-thia-1,3,9,13,14-pentaazatetracyclo[16.2.1.111,14.02,7]docosa-2,4,6,11(22),12-pentaene-8,10,10-trione] registered a ring closure, yield after HPLC in series [1] (from Cc1c(S(=O)(=O)NC(=O)c2ccc(-n3ccc(OCCC4(C(F)(F)F)CC4)n3)nc2Cl)cnn1CCCC1CNC(C)(C)C1, 14-membered ring, K2CO3/CsF/3A MS, 31.9 mM, 150.0 °C) of 7%. Also, in series [2], the pEC50 was > 6.00 and the “Max. Activity” value was “++ (++ is 30-60%)”.

In turn, `Cc1nn2cc1S(=O)(=O)NC(=O)c1ccc(-n3ccc(OCCC4(C(F)(F)F)CC4)n3)nc1N1CC(CCC2)CC1(C)C` (stereo not drawn) [Compound 19, 12,20,20-trimethyl-4-(3-{2-[1-(trifluoromethyl)cyclopropyl]ethoxy}-1H-pyrazol-1-yl)-10λ^6-thia-1,3,9,13,14-pentaazatetracyclo[16.2.1.111,14.02,7]docosa-2,4,6,11(22),12-pentaene-8,10,10-trione] registered a ring closure, yield after HPLC in series [1] (from Cc1nn(CCCC2CNC(C)(C)C2)cc1S(=O)(=O)NC(=O)c1ccc(-n2ccc(OCCC3(C(F)(F)F)CC3)n2)nc1Cl, 14-membered ring, K2CO3/CsF/3A MS, 31.9 mM, 150.0 °C) of 9%. Further, in series [2], the pEC50 is 5.52 to 6.00 and the “Max. Activity” value was “++ (++ is 30-60%)”.

Consider `CC1(C)CC2CCCNc3ccnc(c3)S(=O)(=O)NC(=O)c3ccc(-n4ccc(OCCC5(C(F)(F)F)CC5)n4)nc3N1C2` (stereo not drawn) [Compound 23, 12,12-dimethyl-8-(3-{2-[1-(trifluoromethyl)cyclopropyl]ethoxy}-1H-pyrazol-1-yl)-2λ^6-thia-3,9,11,18,22-pentaazatetracyclo[17.3.1.111,14.05,10]tetracosa-1(23),5(10),6,8,19,21-hexaene-2,2,4-trione], for which, in series [1] (from CC(C)(C)OC(=O)N1CC(CCCNc2ccnc(S(=O)(=O)NC(=O)c3ccc(-n4ccc(OCCC5(C(F)(F)F)CC5)n4)nc3Cl)c2)CC1(C)C, 15-membered ring, K2CO3/CsF, 13.0 mM, 150.0 °C, 2 steps), the ring closure, yield after HPLC turned out to be 9%. Also, in series [2], the pEC50 was < 5.52 and the “Max. Activity” value is reported as “+ (+ is <30%)”.

As to `CC1(C)CC2CN1c1nc(-n3ccc(OCCC4(C(F)(F)F)CC4)n3)ccc1C(=O)NS(=O)(=O)c1cccc(n1)N2` (stereo not drawn) [Compound 31, 5,5-dimethyl-9-(3-{2-[1-(trifluoromethyl)cyclopropyl]ethoxy}-1H-pyrazol-1-yl)-15λ^6-thia-2,6,8,14,20-pentaazatetracyclo[14.3.1.13,6.07,12]henicosa-1(20),7,9,11,16,18-hexaene-13,15,15-trione], the ring closure, yield after HPLC in series [1] (from 2-chloro-N-[[6-[(5,5-dimethylpyrrolidin-3-yl)amino]-2-pyridyl]sulfonyl]-6-[3-[2-[1-(trifluoromethyl)cyclopropyl]ethoxy]pyrazol-1-yl]pyridine-3-carboxamide (dihydrochloride salt), 12-membered ring, K2CO3/CsF/4A MS, 10.5 mM, 150.0 °C) worked out at 37%. For the same compound, in series [2], the pEC50 is < 5.52 and the “Max. Activity” value is on record as “+ (+ is <30%)”.

On to `CC1(C)CC2CCCn3ccc(n3)S(=O)(=O)NC(=O)c3ccc(-n4ccc(OCCC5(C(F)(F)F)CC5)n4)nc3N1C2` (stereo not drawn) [Compound 32, 20,20-dimethyl-4-(3-{2-[1-(trifluoromethyl)cyclopropyl]ethoxy}-1H-pyrazol-1-yl)-10λ^6-thia-1,3,9,14,22-pentaazatetracyclo[16.2.1.111,14.02,7]docosa-2(7),3,5,11(22),12-pentaene-8,10,10-trione], for which the ring closure, yield after HPLC in series [1] (from CC(C)(C)OC(=O)N1CC(CCCn2ccc(S(=O)(=O)NC(=O)c3ccc(-n4ccc(OCCC5(C(F)(F)F)CC5)n4)nc3Cl)n2)CC1(C)C, 14-membered ring, K2CO3/CsF/3A MS, 55.3 mM, 130.0 °C, 2 steps) is 40%. In addition, in series [2], the pEC50 was > 6.00 and the “Max. Activity” value is listed as “+++ (+++ is >60%)”.

These data come from US11866450B2, “Modulators of Cystic Fibrosis Transmembrane Conductance regulator, pharmaceutical compositions, methods of treatment, and process for making the modulators” (priority 2018, dated 2024).
